Experiments:
SR = test: NCI 60 screen, SR; format: cell-based; conditions: Homo sapiens, Leukemia
Description: (§1) The compounds synthesized were tested at the National Cancer Institute (NCI) for anti-proliferative activity in the 60 human tumor cell line assay.

OVCAR-5 = test: NCI 60 screen, OVCAR-5; format: cell-based; conditions: Homo sapiens, Ovarian
Description: as §1

COLO 205 = test: NCI 60 screen, COLO 205; format: cell-based; conditions: Homo sapiens, Colon
Description: as §1

OVCAR-3 = test: NCI 60 screen, OVCAR-3; format: cell-based; conditions: Homo sapiens, Ovarian
Description: as §1

T-47D = test: NCI 60 screen, T-47D; format: cell-based; conditions: Homo sapiens, T47D, Breast
Description: as §1

HCT15 = test: NCI 60 screen, HCT15; format: cell-based; conditions: Homo sapiens, HCT-15, Colon
Description: as §1

A498 = test: NCI 60 screen, A498; format: cell-based; conditions: Homo sapiens, Renal
Description: as §1

UACC-62 = test: NCI 60 screen, UACC-62; format: cell-based; conditions: Homo sapiens, Melanoma
Description: as §1

SN12C = test: NCI 60 screen, SN12C; format: cell-based; conditions: Homo sapiens, Renal
Description: as §1

TK-10 = test: NCI 60 screen, TK-10; format: cell-based; conditions: Homo sapiens, Renal
Description: as §1

HL-60(TB) = test: NCI 60 screen, HL-60(TB); format: cell-based; conditions: Homo sapiens, Leukemia
Description: as §1

CCRF-CEM = test: NCI 60 screen, CCRF-CEM; format: cell-based; conditions: Homo sapiens, Leukemia
Description: as §1

SK-MEL-2 [1] = test: NCI 60 screen, SK-MEL-2 (first line); format: cell-based; conditions: Homo sapiens; Melanoma, SK-MEL-2 (first of two lines so named, r37)
Description: as §1

SW-620 = test: NCI 60 screen, SW-620; format: cell-based; conditions: Homo sapiens, Colon
Description: as §1

MDA-MB-468 = test: NCI 60 screen, MDA-MB-468; format: cell-based; conditions: Homo sapiens, Breast
Description: as §1

MALME-3M = test: NCI 60 screen, MALME-3M; format: cell-based; conditions: Homo sapiens, Melanoma
Description: as §1

MCF7 = test: NCI 60 screen, MCF7; format: cell-based; conditions: Homo sapiens, Breast
Description: as §1

SK-MEL-5 = test: NCI 60 screen, SK-MEL-5; format: cell-based; conditions: Homo sapiens, Melanoma
Description: as §1

MDA-MB-435 = test: NCI 60 screen, MDA-MB-435; format: cell-based; conditions: Homo sapiens, Melanoma
Description: as §1

NCI-322M = test: NCI 60 screen, NCI-322M; format: cell-based; conditions: Homo sapiens, Non-Small Cell Lung
Description: as §1

UO-31 = test: NCI 60 screen, UO-31; format: cell-based; conditions: Homo sapiens, Renal
Description: as §1

NCI-460 = test: NCI 60 screen, NCI-460; format: cell-based; conditions: Homo sapiens, Non-Small Cell Lung
Description: as §1

IGROV1 = test: NCI 60 screen, IGROV1; format: cell-based; conditions: Homo sapiens, IGROV-1, Ovarian
Description: as §1

LOX IMVI = test: NCI 60 screen, LOX IMVI; format: cell-based; conditions: Homo sapiens, Melanoma
Description: as §1

CAKI-1 = test: NCI 60 screen, CAKI-1; format: cell-based; conditions: Homo sapiens, Renal
Description: as §1

RXF393 = test: NCI 60 screen, RXF393; format: cell-based; conditions: Homo sapiens, RXF 393, Renal
Description: as §1

OVCAR-8 = test: NCI 60 screen, OVCAR-8; format: cell-based; conditions: Homo sapiens, Ovarian
Description: as §1

U251 = test: NCI 60 screen, U251; format: cell-based; conditions: Homo sapiens, U-251, CNS
Description: as §1

HOP-92 = test: NCI 60 screen, HOP-92; format: cell-based; conditions: Homo sapiens, Non-Small Cell Lung
Description: as §1

ACHN = test: NCI 60 screen, ACHN; format: cell-based; conditions: Homo sapiens, Renal
Description: as §1

SK-OV-3 = test: NCI 60 screen, SK-OV-3; format: cell-based; conditions: Homo sapiens, Ovarian
Description: as §1

SNB-19 = test: NCI 60 screen, SNB-19; format: cell-based; conditions: Homo sapiens, CNS
Description: as §1

BT-549 = test: NCI 60 screen, BT-549; format: cell-based; conditions: Homo sapiens, Breast
Description: as §1

HCC-2998 = test: NCI 60 screen, HCC-2998; format: cell-based; conditions: Homo sapiens, Colon
Description: as §1

MDA-MB-231/ATCC = test: NCI 60 screen, MDA-MB-231/ATCC; format: cell-based; conditions: Homo sapiens, Breast
Description: as §1

SF-539 = test: NCI 60 screen, SF-539; format: cell-based; conditions: Homo sapiens, CNS
Description: as §1

HOP-62 = test: NCI 60 screen, HOP-62; format: cell-based; conditions: Homo sapiens, Non-Small Cell Lung
Description: as §1

NCI-H226 = test: NCI 60 screen, NCI-H226; format: cell-based; conditions: Homo sapiens, Non-Small Cell Lung
Description: as §1

NCI/ADR-RES = test: NCI 60 screen, NCI/ADR-RES; format: cell-based; conditions: Homo sapiens, Ovarian
Description: as §1

DU-145 = test: NCI 60 screen, DU-145; format: cell-based; conditions: Homo sapiens, Prostatic
Description: as §1

M14 = test: NCI 60 screen, M14; format: cell-based; conditions: Homo sapiens, Melanoma
Description: as §1

HS 578T = test: NCI 60 screen, HS 578T; format: cell-based; conditions: Homo sapiens, Breast
Description: as §1

SF-268 = test: NCI 60 screen, SF-268; format: cell-based; conditions: Homo sapiens, CNS
Description: as §1

A549/ATCC = test: NCI 60 screen, A549/ATCC; format: cell-based; conditions: Homo sapiens, Non-Small Cell Lung
Description: as §1

OVCAR-4 = test: NCI 60 screen, OVCAR-4; format: cell-based; conditions: Homo sapiens, Ovarian
Description: as §1

SNB-75 = test: NCI 60 screen, SNB-75; format: cell-based; conditions: Homo sapiens, CNS
Description: as §1

RPMI-8226 = test: NCI 60 screen, RPMI-8226; format: cell-based; conditions: Homo sapiens, Leukemia
Description: as §1

UACC-257 = test: NCI 60 screen, UACC-257; format: cell-based; conditions: Homo sapiens, Melanoma
Description: as §1

EKVX = test: NCI 60 screen, EKVX; format: cell-based; conditions: Homo sapiens, Non-Small Cell Lung
Description: as §1

K-562 = test: NCI 60 screen, K-562; format: cell-based; conditions: Homo sapiens, K562, Leukemia
Description: as §1

KM12 = test: NCI 60 screen, KM12; format: cell-based; conditions: Homo sapiens, Colon
Description: as §1

SF-295 = test: NCI 60 screen, SF-295; format: cell-based; conditions: Homo sapiens, CNS
Description: as §1

SK-MEL-2 [2] = test: NCI 60 screen, SK-MEL-2 (second line); format: cell-based; conditions: Homo sapiens; Melanoma, SK-MEL-2 (second of two lines so named, r38)
Description: as §1

PC-3 = test: NCI 60 screen, PC-3; format: cell-based; conditions: Homo sapiens, Prostatic
Description: as §1

MOLT-4 = test: NCI 60 screen, MOLT-4; format: cell-based; conditions: Homo sapiens, Leukemia
Description: as §1

786-0 = test: NCI 60 screen, 786-0; format: cell-based; conditions: Homo sapiens, Renal
Description: as §1

HT29 = test: NCI 60 screen, HT29; format: cell-based; conditions: Homo sapiens, HT-29, Colon
Description: as §1

HCT-116 = test: NCI 60 screen, HCT-116; format: cell-based; conditions: Homo sapiens, Colon
Description: as §1

NCI-H522 = test: NCI 60 screen, NCI-H522; format: cell-based; conditions: Homo sapiens, Non-Small Cell Lung
Description: as §1

NCI-H23 = test: NCI 60 screen, NCI-H23; format: cell-based; conditions: Homo sapiens, Non-Small Cell Lung
Description: as §1

## O=C(Cc1ccc(/C=C/C(=O)c2ncc[nH]2)cc1)Nc1ccc(C(F)(F)F)cc1 [Compound 24, (E)-2-(4-(3-(1H-imidazole-2-yl)-3-oxoprop-1-en-1-yl)phenyl)-N-(4-(trifluoromethyl)phenyl) acetamide]
SR
  GI50: 0.843 µM
OVCAR-5
  GI50: 4.89 µM
COLO 205
  GI50: 5.38 µM
OVCAR-3
  GI50: 1.09 µM
T-47D
  GI50: 3.97 µM
HCT15
  GI50: 1.04 µM
A498
  GI50: 4.73 µM
UACC-62
  GI50: 4.47 µM
SN12C
  GI50: 1.87 µM
TK-10
  GI50: 6.63 µM
HL-60(TB)
  GI50: 2.03 µM
CCRF-CEM
  GI50: 1.55 µM
SK-MEL-2 [1]
  GI50: 7.09 µM
SW-620
  GI50: 1.35 µM
MDA-MB-468
  GI50: 1.77 µM
MALME-3M
  GI50: 5.18 µM
MCF7
  GI50: 0.851 µM
SK-MEL-5
  GI50: 5.55 µM
MDA-MB-435
  GI50: 2.87 µM
NCI-322M
  GI50: 4.68 µM
UO-31
  GI50: 2.43 µM
NCI-460
  GI50: 3.6 µM
IGROV1
  GI50: 3.84 µM
LOX IMVI
  GI50: 0.469 µM
CAKI-1
  GI50: 4.43 µM
other
  melting point: 240.5 °C
RXF393
  GI50: 3.75 µM
OVCAR-8
  GI50: 7.99 µM
U251
  GI50: 1.22 µM
HOP-92
  GI50: 4.89 µM
ACHN
  GI50: 6.33 µM
SK-OV-3
  GI50: 7.66 µM
SNB-19
  GI50: 2.79 µM
BT-549
  GI50: 2.11 µM
HCC-2998
  GI50: 3.97 µM
MDA-MB-231/ATCC
  GI50: 2.79 µM
SF-539
  GI50: 4.52 µM
HOP-62
  GI50: 4.8 µM
NCI-H226
  GI50: 6.11 µM
NCI/ADR-RES
  GI50: 8.96 µM
DU-145
  GI50: 2.13 µM
M14
  GI50: 2.58 µM
HS 578T
  GI50: 5.88 µM
SF-268
  GI50: 3.05 µM
A549/ATCC
  GI50: 6.37 µM
OVCAR-4
  GI50: 5.12 µM
SNB-75
  GI50: 3.97 µM
RPMI-8226
  GI50: 0.78 µM
UACC-257
  GI50: 7.2 µM
EKVX
  GI50: 5.57 µM
K-562
  GI50: 1.24 µM
KM12
  GI50: 1.11 µM
SF-295
  GI50: 4.08 µM
SK-MEL-2 [2]
  GI50: 5.32 µM
PC-3
  GI50: 2.81 µM
MOLT-4
  GI50: 2.29 µM
786-0
  GI50: 1.4 µM
HT29
  GI50: 1.09 µM
HCT-116
  GI50: 0.694 µM
NCI-H522
  GI50: 4.87 µM
NCI-H23
  GI50: 3.42 µM

## Cn1ccnc1C(=O)/C=C/c1ccc(CC(=O)Nc2ccccc2)cc1 [Compound 27, (E)-2-(4-(3-(1-methyl-1H-imidazol-2-yl)-3-oxoprop-1-en-1-yl)phenyl)-N-phenylacetamide]
SR
  GI50: 1.16 µM
OVCAR-5
  GI50: 4.19 µM
COLO 205
  GI50: 3.77 µM
OVCAR-3
  GI50: 1.87 µM
T-47D
  GI50: 5.23 µM
HCT15
  GI50: 1.25 µM
A498
  GI50: 6.08 µM
UACC-62
  GI50: 4.13 µM
SN12C
  GI50: 3.84 µM
TK-10
  GI50: 7.44 µM
HL-60(TB)
  GI50: 1.57 µM
CCRF-CEM
  GI50: 2.37 µM
SK-MEL-2 [1]
  GI50: 5.06 µM
SW-620
  GI50: 2.75 µM
MDA-MB-468
  GI50: 1.71 µM
MALME-3M
  GI50: 5.93 µM
MCF7
  GI50: 1.13 µM
SK-MEL-5
  GI50: 4.18 µM
MDA-MB-435
  GI50: 4.3 µM
NCI-322M
  GI50: 2.57 µM
UO-31
  GI50: 2.77 µM
NCI-460
  GI50: 2.32 µM
IGROV1
  GI50: 2.11 µM
LOX IMVI
  GI50: 1.03 µM
other
  melting point: 184 to 186 °C
RXF393
  GI50: 3.86 µM
OVCAR-8
  GI50: 6.44 µM
U251
  GI50: 1.57 µM
HOP-92
  GI50: 6.63 µM
ACHN
  GI50: 5.24 µM
SK-OV-3
  GI50: 9.3 µM
SNB-19
  GI50: 1.9 µM
BT-549
  GI50: 2.95 µM
HCC-2998
  GI50: 4.42 µM
MDA-MB-231/ATCC
  GI50: 2.37 µM
SF-539
  GI50: 2.43 µM
HOP-62
  GI50: 3.75 µM
NCI-H226
  GI50: 8.59 µM
NCI/ADR-RES
  GI50: 7.54 µM
DU-145
  GI50: 1.1 µM
M14
  GI50: 4.55 µM
HS 578T
  GI50: 1.42 µM
SF-268
  GI50: 3.75 µM
A549/ATCC
  GI50: 6.6 µM
OVCAR-4
  GI50: 4.12 µM
SNB-75
  GI50: 25 µM
RPMI-8226
  GI50: 1.45 µM
UACC-257
  GI50: 6.98 µM
EKVX
  GI50: 6.28 µM
K-562
  GI50: 1.07 µM
KM12
  GI50: 3.39 µM
SF-295
  GI50: 5.44 µM
SK-MEL-2 [2]
  GI50: 5.69 µM
PC-3
  GI50: 3.29 µM
MOLT-4
  GI50: 4.3 µM
786-0
  GI50: 2.67 µM
HT29
  GI50: 2.4 µM
HCT-116
  GI50: 1.68 µM
NCI-H522
  GI50: 3.2 µM
NCI-H23
  GI50: 3.24 µM
